Literature values, collected in patent US20250099408A1, “IMPROVED SURAMIN METHODS AND COMPOSITIONS” (priority 2022, published 2025).

Tested on: HIV
Settings: suramin 1 g IV

Cc1ccc(C(=O)Nc2ccc(S(=O)(=O)O)c3cc(S(=O)(=O)O)cc(S(=O)(=O)O)c23)cc1NC(=O)c1cccc(NC(=O)Nc2cccc(C(=O)Nc3cc(C(=O)Nc4ccc(S(=O)(=O)O)c5cc(S(=O)(=O)O)cc(S(=O)(=O)O)c45)ccc3C)c2)c1 [suramin]
virus in the blood circulation (HIV patients): almost clearing the virus from the blood circulation
clinical improvement of the patients: did not give clinical improvements
